Patent US20260001928A1 (CORTERIA PHARMACEUTICALS, priority 2022, published 2026)
*1 amine or outer side, *2 acyl side, *3 side chain or, on linkers, in order; H or OH if unused. Where a SMILES comes first, the peptide text is derived from it. Side-chain parts run from the residue outwards. [ ]: non-standard residue; d: D form. The star is where a group is joined. C18 diacid = O=C(O)CCCCCCCCCCCCCCCCC(=O)*; γGlu = O=C(O)[C@H](CCC(=O)[*:2])N[*:1]; NMeI = CC[C@H](C)[C@H](NC)C(=O)O; αMeL = CC(C)C[C@](C)(N)C(=O)O; Api = NC1(C(=O)O)CCNCC1; Abu = CC[C@H](N)C(=O)O; Dap = NC[C@H](N)C(=O)O; AEEA = NCCOCCOCC(=O)O

How the values were obtained:
CFR1R receptor = molecular target: T1, CFR1R receptor (Homo sapiens, UniProt P34998); assay: Activity at anti-target CFR1R receptor, cAMP assay in CRF1R-overexpression CHO-K1 cells; type: cell-based; details: 100% = Sauvagine at 100 nM; for EC50: cAMP
T1 construct: host or cells: CHO-K1 (clone 2)
T1 sequence (P34998 24-415): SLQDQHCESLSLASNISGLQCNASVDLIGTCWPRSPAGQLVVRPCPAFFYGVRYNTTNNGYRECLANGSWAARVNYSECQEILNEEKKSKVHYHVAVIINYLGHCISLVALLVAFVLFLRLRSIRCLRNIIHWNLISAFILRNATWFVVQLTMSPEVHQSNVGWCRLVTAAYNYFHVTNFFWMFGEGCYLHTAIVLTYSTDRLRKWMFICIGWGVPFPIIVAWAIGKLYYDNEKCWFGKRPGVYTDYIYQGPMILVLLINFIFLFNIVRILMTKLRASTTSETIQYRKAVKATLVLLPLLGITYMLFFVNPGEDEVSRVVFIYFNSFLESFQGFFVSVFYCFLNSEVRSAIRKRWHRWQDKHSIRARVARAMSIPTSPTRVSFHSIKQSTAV
Procedure, shortened: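 Signal is normalised to 100 nM Sauvagine, taken as 100% activation, in clone 2 cells plated at a final 4000 cells/well from frozen stocks.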

human CRF2a receptor = molecular target: T2, human CRF2a receptor (Homo sapiens, UniProt Q13324); assay: Activity at human CRF2a receptor, cAMP functional assay in TeloHEAC cells; type: cell-based; details: TeloHEAC cells stably expressing human CRF2a receptor, relative to urocortin 2 (100 nM = 100%)
T2 construct: expressed in transfected cells; host or cells: TeloHEAC cells
T2 sequence (Q13324 1-411): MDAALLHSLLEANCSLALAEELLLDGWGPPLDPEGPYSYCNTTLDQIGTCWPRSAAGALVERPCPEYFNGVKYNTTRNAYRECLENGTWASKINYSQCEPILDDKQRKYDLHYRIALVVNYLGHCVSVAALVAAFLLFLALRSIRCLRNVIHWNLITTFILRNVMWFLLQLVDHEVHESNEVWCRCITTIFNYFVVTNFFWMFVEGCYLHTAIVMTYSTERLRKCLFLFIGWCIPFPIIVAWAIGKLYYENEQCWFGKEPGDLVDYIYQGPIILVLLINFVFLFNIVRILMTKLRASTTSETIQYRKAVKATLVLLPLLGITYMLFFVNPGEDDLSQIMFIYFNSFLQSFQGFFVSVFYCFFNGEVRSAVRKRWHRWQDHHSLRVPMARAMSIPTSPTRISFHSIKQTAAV
Procedure, shortened: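 cAMP accumulation was measured by HTRF 665/620 nm ratio after 30 min at 37° C compound exposure (16 twofold dilutions) of CRF2a-expressing TeloHEAC cells, 10000/well, in HEPES-buffered HBSS plus IBMX. Activity was normalised to urocortin 2 at 100 nM (100%), and EC50 was the concentration giving half-maximal activation.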

Row | SMILES | Emax (% I) (CFR1R receptor) | EC50 (CFR1R receptor) [nM] | EC50 (human CRF2a receptor) [nM]
1 | CC[C@H](C)[C@H](NC)C(=O)N[C@H](C(=O)N[C@@H](CC(C)C)C(=O)N[C@@H](CO)C(=O)N[C@@H](CC(C)C)C(=O)N[C@@H](CC(=O)O)C(=O)N[C@@H](C(=O)N1CCC[C@H]1C(=O)N[C@H](C(=O)N[C@@H](CCCCN)C(=O)N[C@@H](CC(C)C)C(=O)N[C@@H](CCCCNC(=O)COCCOCCNC(=O)COCCOCCNC(=O)CC[C@H](NC(=O)CCCCCCCCCCCCCCCCC(=O)O)C(=O)O)C(=O)N[C@@H](CCCCN)C(=O)N[C@H](C(=O)N[C@@H](CC(C)C)C(=O)N[C@@H](CC(C)C)C(=O)N[C@@H](CCC(=O)O)C(=O)N[C@@H](CCC(N)=O)C(=O)N[C@@H](CCC(=O)O)C(=O)N[C@@H](CCCCN)C(=O)N[C@@H](CCC(N)=O)C(=O)N[C@@H](CCCCN)C(=O)N[C@@H](CCCCN)C(=O)N[C@@H](CCC(N)=O)C(=O)N[C@@H](CCCNC(=N)N)C(=O)N[C@@H](CCC(=O)O)C(=O)N[C@@H](CCC(N)=O)C(=O)N[C@@H](C)C(=O)N[C@@H](CCC(=O)O)C(=O)N[C@H](C(=O)N[C@@H](CC(N)=O)C(=O)N[C@@H](CCC(=O)O)C(=O)N[C@@H](CCC(N)=O)C(=O)N[C@H](C(=O)N[C@@H](CC(C)C)C(=O)N[C@@H](C)C(=O)N[C@@H](CCC(N)=O)C(=O)N[C@H](C(N)=O)C(C)C)[C@@H](C)CC)[C@@H](C)O)[C@@H](C)CC)[C@@H](C)CC)C(C)C)C(C)C [compound 116] (H-[NMeI]VLSLD[dV]PIKLK([AEEA-AEEA-γGlu-C18 diacid])KILLEQEKQKKQREQAETNEQILAQV-NH2) | 0 | > 250 | 0.37
2 | CC[C@H](C)[C@H](NC)C(=O)N[C@H](C(=O)N[C@@H](CC(C)C)C(=O)N[C@@H](CO)C(=O)N[C@@H](CC(C)C)C(=O)N[C@@H](CC(=O)O)C(=O)N[C@@H](C(=O)N1CCC[C@H]1C(=O)N[C@H](C(=O)N[C@@H](CCCCN)C(=O)N[C@@H](CC(C)C)C(=O)N[C@@H](CCCCNC(=O)COCCOCCNC(=O)COCCOCCNC(=O)CC[C@H](NC(=O)CCCCCCCCCCCCCCCCC(=O)O)C(=O)O)C(=O)N[C@@H](CCCCN)C(=O)N[C@H](C(=O)N[C@@H](CC(C)C)C(=O)N[C@@H](CC(C)C)C(=O)N[C@@H](CCC(=O)O)C(=O)N[C@@H](CCC(N)=O)C(=O)N[C@@H](CCC(=O)O)C(=O)N[C@@H](CCCCN)C(=O)N[C@@H](CCC(N)=O)C(=O)N[C@@H](CCCCN)C(=O)N[C@@H](CCCCN)C(=O)N[C@@H](CCC(N)=O)C(=O)N[C@@H](CCCNC(=N)N)C(=O)N[C@@H](CCC(=O)O)C(=O)N[C@@H](CCC(N)=O)C(=O)N[C@@H](C)C(=O)N[C@@H](CCC(=O)O)C(=O)N[C@H](C(=O)N[C@@H](CC(N)=O)C(=O)NC1(C(=O)N[C@@H](CCC(N)=O)C(=O)N[C@H](C(=O)N[C@@H](CC(C)C)C(=O)N[C@@H](C)C(=O)N[C@@H](CCC(N)=O)C(=O)N[C@H](C(N)=O)C(C)C)[C@@H](C)CC)CCNCC1)[C@@H](C)O)[C@@H](C)CC)[C@@H](C)CC)C(C)C)C(C)C [compound 117] (H-[NMeI]VLSLD[dV]PIKLK([AEEA-AEEA-γGlu-C18 diacid])KILLEQEKQKKQREQAETN[Api]QILAQV-NH2) | 3 | > 250 | 0.63

Now from value to compound:

Row | Emax (% I) (CFR1R receptor) | EC50 (CFR1R receptor) [nM] | EC50 (human CRF2a receptor) [nM] | SMILES
3 | 3 | > 250 | 0.28 | CC[C@H](C)[C@H](NC(C)=O)C(=O)N[C@H](C(=O)N[C@@H](CC(C)C)C(=O)N[C@@H](CO)C(=O)N[C@@H](CC(C)C)C(=O)N[C@@H](CC(=O)O)C(=O)N[C@@H](C(=O)N1CCC[C@H]1C(=O)N[C@H](C(=O)N[C@@H](CCCCN)C(=O)N[C@@](C)(CC(C)C)C(=O)N[C@@H](CCCCNC(=O)COCCOCCNC(=O)COCCOCCNC(=O)CC[C@H](NC(=O)CCCCCCCCCCCCCCCCC(=O)O)C(=O)O)C(=O)N[C@@H](CCCCN)C(=O)N[C@H](C(=O)N[C@@H](CC(C)C)C(=O)N[C@@H](CC(C)C)C(=O)N[C@@H](CCC(=O)O)C(=O)N[C@@H](CCC(N)=O)C(=O)N[C@@H](CCC(=O)O)C(=O)N[C@@H](CCCCN)C(=O)N[C@@H](CCC(N)=O)C(=O)N[C@@H](CCCCN)C(=O)N[C@@H](CCCCN)C(=O)N[C@@H](CCC(N)=O)C(=O)N[C@@H](CCCNC(=N)N)C(=O)N[C@@H](CCC(=O)O)C(=O)N[C@@H](CCC(N)=O)C(=O)N[C@@H](C)C(=O)N[C@@H](CCC(=O)O)C(=O)N[C@H](C(=O)N[C@@H](CC(N)=O)C(=O)N[C@@H](C)C(=O)N[C@@H](CCC(N)=O)C(=O)N[C@H](C(=O)N[C@@H](CC(C)C)C(=O)N[C@@H](C)C(=O)N[C@@H](CCC(N)=O)C(=O)N[C@H](C(N)=O)C(C)C)[C@@H](C)CC)[C@@H](C)O)[C@@H](C)CC)[C@@H](C)CC)C(C)C)C(C)C [compound 112] (Ac-IVLSLD[dV]PIK[αMeL]K([AEEA-AEEA-γGlu-C18 diacid])KILLEQEKQKKQREQAETNAQILAQV-NH2)
4 | 6 | > 250 | 0.18 | CC[C@H](NC(=O)[C@H](CC(N)=O)NC(=O)[C@@H](NC(=O)[C@H](CCC(=O)O)NC(=O)[C@H](C)NC(=O)[C@H](CCC(N)=O)NC(=O)[C@H](CCC(=O)O)NC(=O)[C@H](CCCNC(=N)N)NC(=O)[C@H](CCC(N)=O)NC(=O)[C@H](CCCCN)NC(=O)[C@H](CCCCN)NC(=O)[C@H](CCC(N)=O)NC(=O)[C@H](CCCCN)NC(=O)[C@H](CCC(=O)O)NC(=O)[C@H](CCC(N)=O)NC(=O)[C@H](CCC(=O)O)NC(=O)[C@H](CC(C)C)NC(=O)[C@H](CC(C)C)NC(=O)[C@@H](NC(=O)[C@H](CCCCN)NC(=O)[C@H](CCCCNC(=O)COCCOCCNC(=O)COCCOCCNC(=O)CC[C@H](NC(=O)CCCCCCCCCCCCCCCCC(=O)O)C(=O)O)NC(=O)[C@H](CC(C)C)NC(=O)[C@H](CCCCN)NC(=O)[C@@H](NC(=O)[C@@H]1CCCN1C(=O)[C@H](NC(=O)[C@H](CC(=O)O)NC(=O)[C@H](CC(C)C)NC(=O)[C@H](CO)NC(=O)[C@H](CC(C)C)NC(=O)[C@@H](NC(=O)[C@@H](NC)[C@@H](C)CC)C(C)C)C(C)C)[C@@H](C)CC)[C@@H](C)CC)[C@@H](C)O)C(=O)N[C@@H](CCC(N)=O)C(=O)N[C@H](C(=O)N[C@@H](CC(C)C)C(=O)N[C@@H](C)C(=O)N[C@@H](CCC(N)=O)C(=O)N[C@H](C(N)=O)C(C)C)[C@@H](C)CC [compound 114] (H-[NMeI]VLSLD[dV]PIKLK([AEEA-AEEA-γGlu-C18 diacid])KILLEQEKQKKQREQAETN[Abu]QILAQV-NH2)
5 | 4 | > 250 | 0.76 | CC[C@H](C)[C@H](NC)C(=O)N[C@H](C(=O)N[C@@H](CC(C)C)C(=O)N[C@@H](CO)C(=O)N[C@@H](CC(C)C)C(=O)N[C@@H](CC(=O)O)C(=O)N[C@@H](C(=O)N1CCC[C@H]1C(=O)N[C@H](C(=O)N[C@@H](CCCCN)C(=O)N[C@@H](CC(C)C)C(=O)N[C@@H](CCCCNC(=O)COCCOCCNC(=O)COCCOCCNC(=O)CC[C@H](NC(=O)CCCCCCCCCCCCCCCCC(=O)O)C(=O)O)C(=O)N[C@@H](CCCCN)C(=O)N[C@H](C(=O)N[C@@H](CC(C)C)C(=O)N[C@@H](CC(C)C)C(=O)N[C@@H](CCC(=O)O)C(=O)N[C@@H](CCC(N)=O)C(=O)N[C@@H](CCC(=O)O)C(=O)N[C@@H](CCCCN)C(=O)N[C@@H](CCC(N)=O)C(=O)N[C@@H](CCCCN)C(=O)N[C@@H](CCCCN)C(=O)N[C@@H](CCC(N)=O)C(=O)N[C@@H](CCCNC(=N)N)C(=O)N[C@@H](CCC(=O)O)C(=O)N[C@@H](CCC(N)=O)C(=O)N[C@@H](C)C(=O)N[C@@H](CCC(=O)O)C(=O)N[C@H](C(=O)N[C@@H](CC(N)=O)C(=O)N[C@@H](CN)C(=O)N[C@@H](CCC(N)=O)C(=O)N[C@H](C(=O)N[C@@H](CC(C)C)C(=O)N[C@@H](C)C(=O)N[C@@H](CCC(N)=O)C(=O)N[C@H](C(N)=O)C(C)C)[C@@H](C)CC)[C@@H](C)O)[C@@H](C)CC)[C@@H](C)CC)C(C)C)C(C)C [compound 115] (H-[NMeI]VLSLD[dV]PIKLK([AEEA-AEEA-γGlu-C18 diacid])KILLEQEKQKKQREQAETN[Dap]QILAQV-NH2)
